16 molecules from patent publication US20040110758A1, “4,6-Diaminosubstituted-2-[oxy or aminoxy]-[1,3,5]triazines as protein tyrosine kinase inhibitors” (priority 2002, published 2004) can be followed below.

Assay [1] addresses T1, KDR (Homo sapiens, UniProt P35968). Briefly: KDR Enzymatic Assay (fluorescence polarization competition immunoassay). Format: biochemical. As to conditions: for IC50: 1.6 nM KDR, 10 μM ATP, 10 μg/ml poly(E4,Y), averages of three independent measurements, read-out: IC50 Enzyme; for protein tyrosine kinase (KDR) inhibition, potency in words: text commentary on Table 1. As for the experimental part: KDR Enzymatic Assay. A fluorescence polarization competition immunoassay was used to determine the compound potency for KDR. The assay was performed in black 96-well microplates (LJL BioSystems). The assay buffer used was 100 mM HEPES, pH 7.5, 1 mM DTT, 0.01% (v/v) Tween-20. Compounds were diluted in assay buffer containing 4% DMSO just prior to the assay. […] The kinase reaction was initiated by adding 2 μl of 8 nM KDR in assay buffer.
The plates were incubated at room temperature for 5 min. At the end of the incubation, the reaction was quenched with 1.2 μl of 50 mM EDTA. Following a 5-min incubation, each well received 10 μl of a 1:1:3 mixture of anti-phosphotyrosine antibody, 10×, PTK green tracer, 10× (vortexed), FP dilution buffer, respectively (all from PanVera, cat. # P2837). The plate was covered, incubated for 30 min at room temperature and the fluorescence polarization was read on an ANALYST™ HT Assay Detection System (LJL Biosystems, Sunnyvale, Calif.). The instrument settings were: 485 nm excitation filter; 530 nm emission filter; Z height: middle of well; G factor: 0.93. […] The IC50 values reported are the averages of three independent measurements.
For orientation: In fluorescence polarisation assays a small probe gives low polarisation when free and higher when bound to something large.
Target sequence in this assay (P35968 20-1356, species assumed): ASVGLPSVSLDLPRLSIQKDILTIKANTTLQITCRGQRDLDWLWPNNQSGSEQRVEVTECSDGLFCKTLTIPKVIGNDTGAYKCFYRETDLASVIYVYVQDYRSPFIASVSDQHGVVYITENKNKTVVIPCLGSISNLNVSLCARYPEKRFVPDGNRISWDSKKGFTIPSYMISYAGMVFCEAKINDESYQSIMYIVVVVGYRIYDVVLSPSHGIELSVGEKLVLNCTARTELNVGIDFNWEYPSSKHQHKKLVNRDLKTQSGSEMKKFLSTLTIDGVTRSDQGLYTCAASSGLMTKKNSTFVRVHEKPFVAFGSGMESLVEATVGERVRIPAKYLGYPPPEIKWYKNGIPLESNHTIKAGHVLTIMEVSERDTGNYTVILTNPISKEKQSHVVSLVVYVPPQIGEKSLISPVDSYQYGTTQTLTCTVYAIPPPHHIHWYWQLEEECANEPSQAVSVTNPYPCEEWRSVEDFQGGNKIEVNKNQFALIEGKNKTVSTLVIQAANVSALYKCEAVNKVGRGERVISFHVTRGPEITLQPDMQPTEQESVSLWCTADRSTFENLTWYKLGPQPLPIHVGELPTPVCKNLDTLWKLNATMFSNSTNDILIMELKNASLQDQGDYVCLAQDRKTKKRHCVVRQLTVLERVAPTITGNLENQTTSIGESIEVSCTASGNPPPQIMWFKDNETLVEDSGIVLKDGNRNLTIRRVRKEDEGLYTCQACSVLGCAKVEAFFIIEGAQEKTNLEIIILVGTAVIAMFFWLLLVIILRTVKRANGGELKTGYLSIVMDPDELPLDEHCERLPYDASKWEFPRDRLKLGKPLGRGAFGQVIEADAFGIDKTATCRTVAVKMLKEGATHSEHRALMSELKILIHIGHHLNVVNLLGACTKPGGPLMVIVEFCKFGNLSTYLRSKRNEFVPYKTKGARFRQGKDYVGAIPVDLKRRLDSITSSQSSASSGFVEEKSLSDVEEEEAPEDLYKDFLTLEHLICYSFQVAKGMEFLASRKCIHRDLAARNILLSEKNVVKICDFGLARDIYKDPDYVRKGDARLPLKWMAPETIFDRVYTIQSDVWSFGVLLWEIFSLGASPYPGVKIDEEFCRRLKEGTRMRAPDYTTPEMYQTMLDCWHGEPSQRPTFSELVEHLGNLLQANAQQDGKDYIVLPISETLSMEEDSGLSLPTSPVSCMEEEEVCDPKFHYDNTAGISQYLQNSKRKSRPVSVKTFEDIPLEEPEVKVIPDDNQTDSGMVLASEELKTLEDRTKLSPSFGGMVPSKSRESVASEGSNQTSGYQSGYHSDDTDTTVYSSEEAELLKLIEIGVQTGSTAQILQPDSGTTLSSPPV

Assay [2] has as its target T1, KDR. Briefly: KDR Cell-Based Assay (VEGF-stimulated MAP kinase activation in HUVEC). Also noted: which express endogenous Flk-1(KDR); endogenous in cells; host or cells: HUVEC (human umbilical vein endothelial cells). As to conditions: compounds 30 minutes prior to 25 ng/ml VEGF for 10 minutes, phosphorylated MAP kinase immunoblot. As for the experimental part:
KDR Cell-Based Assay. To determine the effect of the test compounds on KDR function in cells, VEGF-stimulated MAP kinase activation in human umbilical vein endothelial cells (HUVEC), which express endogenous Flk-1(KDR), was examined. HUVECs were grown to confluence in EMB-2 endothelial cell media (Biowhittaker Inc., Walkersville, Md.) at 37° C. and 5% CO2. Confluent, quiescent HUVECs were treated with the test compounds 30 minutes prior to stimulation with 25 ng/ml VEGF for 10 minutes at 37° C. These cells were then lysed in HNTG buffer (50 mM HEPES, 150 mM NaCl, 1% triton-X-100, 1.5 mM MgCl2, 10% glycerol, 10 mM NaF, 1 mM EDTA, 10 mM sodium pyrophosphate, 1 uM PMSF and 250 uM NaVO4). Cell lysates (40 ug total protein) were separated by SDS-PAGE and transferred to nitrocellulose. Immunoblots were probed with a polyclonal antibody to phosphorylated MAP kinase (Cell Signaling Technologies, Woburn, Mass.) and alkaline phosphatase conjugated secondary antibody (Biorad Labs, Hercules, Calif.). Immunoblot detection was done by measuring the fluorescent product of the alkaline phosphatase reaction with the substrate 9H-(1,3-dichloro-9,9-dimethylacridin-2-one-7-yl) phosphate, diammonium salt (DDAO phosphate) (Molecular Probes, Eugene, Oreg.) using a Molecular Dynamics Typhoon Imaging system (Molecular Dynamics, Sunnyvale, Calif.). Quantitation of DDAO phosphate signal and IC50 determinations were done with Molecular Dynamics ImageQuant software.
Target sequence in this assay (P35968 20-1356): as the sequence (P35968 20-1356, species assumed) above

Turning to `C[C@H](Nc1nc(O)nc(Nc2ccc3ncsc3c2)n1)c1ccccc1` [Example 4, (S)-4-(Benzothiazol-6-ylamino)-6-(1-phenylethylamino)-[1,3,5]triazin-2-ol], at KDR [1], the IC50 fell in the range of 1000 to 15000 nM.
For `CC(C)(Nc1nc(O)nc(Nc2ccc3ncccc3c2)n1)c1ccccc1` [Example 7, 4-(1-methyl-1-phenylethylamino)-6-(guinolin-6-ylamino)-[1,3,5]triazin-2-ol], the results for the IC50 at KDR [2] and on KDR [1] were 1000 to 15000 nM and less than 1000 nM, respectively.
For `CN(c1ccc2cn[nH]c2c1)c1nc(O)nc(Nc2ccc3ncsc3c2)n1` [Example 11] the same measures were 1000 to 15000 nM and less than 1000 nM.
For the molecule `CC(C)(Nc1nc(Nc2ccc3ncsc3c2)nc(OCc2ccccc2)n1)c1ccccc1` [Example 18, N-(Benzothiazol-6-yl)-6-benzyloxy-N′-(1-methyl-1-phenylethyl)-[1,3,5]triazine-2,4-diamine], the IC50 at KDR [1] fell in the range of 1000 to 15000 nM.
As for `Oc1nc(Nc2ccc3ncsc3c2)nc(N2CCSC(c3ccccc3)C2)n1` (stereo not shown) [Example 9, 4-(Benzothiazol-6-ylamino)-6-(2-phenyl-thiomorpholin-4-yl)-[1,3,5]triazin-2-ol], the IC50 against KDR [2] is 1000 to 15000 nM; at KDR [1], less than 1000 nM. Also, the “protein tyrosine kinase (KDR) inhibition, potency in words” value (shortened to “protein tyrosine kinase (KDR) inhibition”) at KDR [1] is on record as “potent inhibitors”.
Consider `CN(CCc1ccccn1)c1nc(O)nc(Nc2ccc3ncsc3c2)n1` [Example 6, 4-(Benzothiazol-6-ylamino)-6-[methyl-(2-pyridyl-2-ylethyl)amino]-[1,3,5]triazin-2-ol], for which the IC50 at KDR [2] is 1000 to 15000 nM; on KDR [1], less than 1000 nM.
Regarding `CC(C)(Nc1nc(N)nc(Nc2ccc3ncsc3c2)n1)c1ccccc1` [Example 15, N-(Benzothiazol-6-yl)-N′-(1-methyl-1-phenylethyl)-[1,3,5]triazine-2,4,6-triamine], the IC50 at KDR [1] is 1000 to 15000 nM.
On the same count and under the same terms, the figure for `COc1nc(Nc2ccc3ncsc3c2)nc(NC(C)(C)c2ccccc2)n1` [Example 17, N-(Benzothiazol-6-yl)-6-methoxy-N′-(1-methyl-1-1-phenylethyl)-[1,3,5]triazine-2,4-diamine] is 1000 to 15000 nM.
On the same count and under the same terms, next, `CC(C)(Nc1ncnc(Nc2ccc3ncsc3c2)n1)c1ccccc1` [Example 16, N-(Benzothiazol-6-yl)-N′-(1-methyl-1-phenylethyl)-[1,3,5]triazine-2,4-diamine]: 1000 to 15000 nM.
`Oc1nc(Nc2ccc3ncsc3c2)nc(N2CCSCC2c2ccccc2)n1` (stereo not shown) [Example 10, 4-(Benzothiazol-6-ylamino)-6-(3-phenyl-thiomorpholin-4-yl)-[1,3,5]triazin-2-ol] gave an IC50 against KDR [2] of 1000 to 15000 nM. Moreover, at KDR [1], the IC50 is less than 1000 nM and the “protein tyrosine kinase (KDR) inhibition” value is “potent inhibitors”.
As for `Oc1nc(NCc2ccccc2)nc(Nc2ccc3ncsc3c2)n1` [Example 2, 4-(Benzothiazol-6-ylamino)-6-(benzylamino)-[1,3,5]triazin-2-ol], on KDR [1], the IC50 was in the range of 1000 to 15000 nM; the “protein tyrosine kinase (KDR) inhibition” value is “less active than Examples 3 and 4”.
For `Oc1nc(Nc2ccc3ncsc3c2)nc(N2CCCC2c2ccccc2)n1` (stereo not shown) [Example 8, 4-(Benzothiazol-6-ylamino)-6-(2-phenyl-pyrrolidin-1-yl)-[1,3,5]triazin-2-ol], the results for the IC50 against KDR [2] and at KDR [1] were 1000 to 15000 nM and less than 1000 nM, respectively.
On to `CC(C)(Nc1nc(O)nc(Nc2ccc3ncsc3c2)n1)c1ccccc1` [Example 5], for which, at KDR [2], the IC50 was less than 1000 nM. Besides, at KDR [1], the IC50 is less than 1000 nM and the “protein tyrosine kinase (KDR) inhibition” value is “one of the most potent protein tyrosine kinase inhibitors tested”.
For the molecule `C[C@@H](Nc1nc(O)nc(Nc2ccc3ncsc3c2)n1)c1ccccc1` [Example 3, (R)-4-(Benzothiazol-6-ylamino)-6-(1-phenylethylamino)-[1,3,5]triazin-2-ol], the IC50 against KDR [2] is 1000 to 15000 nM. At KDR [1], the IC50 is less than 1000 nM and the “protein tyrosine kinase (KDR) inhibition” value is given as “more potent than the corresponding S-enantiomer”.
As for `CCN(Cc1ccccc1)c1nc(O)nc(Nc2ccc3ncsc3c2)n1` [Example 1, 4-(Benzothiazol-6-ylamino)-6-(N-ethylbenzylamino)-[1,3,5]triazin-2-ol], the IC50 at KDR [2] and on KDR [1] was less than 1000 nM throughout.
Take `CC(C)(Nc1nc(NO)nc(Nc2ccc3ncsc3c2)n1)c1ccccc1` [Example 14]: the figures for the IC50 on KDR [2] and on KDR [1] were 1000 to 15000 nM and less than 1000 nM, respectively.

By IC50 is commonly meant the concentration that gives 50% inhibition.
